Test results taken from patent publication US20230150924A1, “NOVEL COMPOUND HAVING CANCER METASTASIS INHIBITORY ACTIVITY, PREPARATION METHOD THEREFOR, AND PHARMACEUTICAL COMPOSITION FOR INHIBITING CANCER METASTASIS AND INVASION OR TREATING COLORECTAL CANCER, COMPRISING COMPOUND” (CELLGENTEK CO., LTD., priority 2019, published 2023).
Like-named read-outs stand apart in the source and are kept apart here.

What was measured:
KAI1 promoter = KAI1 promoter luciferase reporter assay in transfected Caco2 cells; type: cell-based, human; details: Homo sapiens, Caco-2, 16 h, read-out: Relative KAI promoter activity
[1] = tested on: invasion of colorectal cancer cells; assay: In vivo relative invation (invasion; EV and KITENIN controls, no method described); details: relative to EV (=1); KIT = KITENIN
[2] = 1 μM compound, 16 hours, transfected Caco2 cells, luciferase activity relative to DMSO control (=1)

SMILES	fold induction at 1 µM (KAI1 promoter; [2])	In vivo relative invation [1]	fold induction at 1 µM (KAI1 promoter)
O=C(COc1ccccc1C(=O)NCC(=O)c1ccccc1)NCc1ccc2c(c1)OCO2 [Example 212]	1.01	1.219	–
O=C(COc1ccccc1C(=O)NCC(=O)c1ccccc1)Nc1ccccc1 [Example 201, 2-(2-oxo-2-(phenylamino)ethoxy)-N-(2-oxo-2-phenylethyl)benzamide]	1.46	0.9283	–
Cc1ccccc1NC(=O)COc1ccccc1C(=O)NCC(=O)c1ccccc1 [Example 202, 2-(2-oxo-2-(o-toylamino)ethoxy)-N-(2-oxo-2-phenylethyl)benzamide]	1.31	1.138	–
O=C(CNC(=O)C1CC1)c1ccccc1 [Example 16, N-(2-oxo-2-phenylethyl)cyclopropanecarboxamide]	0.92	0.9645	–
O=C(CNC(=O)c1ccccc1OC1CCN(S(=O)(=O)Cc2ccccc2)CC1)c1ccccc1 [Example 188, 2-((1-(benzylsulfonyl)piperidin-4-yl)oxy)-N-(2-oxo-2-phenylethyl)benzamide]	0.92	1.123	–
COc1ccc(C(=O)NCC(=O)c2ccc(N(C)C)cc2)cc1 [Example 97, N-(2-(4-(dimethylamino)phenyl)-2-oxoethyl)-4-methoxybenzamide]	1.8	1.024	–
O=C(CNC(=O)c1cccc([N+](=O)[O-])c1)c1ccccc1 [Example 34, 3-nitro-N-(2-oxo-2-phenylethyl)benzamide]	1.34	1.103	–
CC(C)CCNC(=O)COc1ccccc1C(=O)NCC(=O)c1ccccc1 [Example 229, 2-(2-(isopentylamino)-2-oxoethoxy)-N-(2-oxo-2-phenylethyl)benzamide]	1.06	1.245	–
O=C(CNC(=O)c1ccccc1C(F)(F)F)c1ccc(Cl)cc1 [Example 73, N-(2-(4-chlorophenyl)-2-oxoethyl)-2-(trifluoromethyl)benzamide]	0.99	1.116	–
C/C=C/C(=O)NCC(=O)c1ccc(Cl)cc1 [Example 48, (E)-N-(2-(4-chlorophenyl)-2-oxoethyl)but-2-enamide]	0.85	1.19	–
C=CC(=O)NCC(=O)c1ccc(N(C)C)cc1 [Example 95, N-(2-(4-(dimethylamino)phenyl)-2-oxoethyl)acrylamide]	1.21	1.16	–
COc1ccc(S(=O)(=O)NCC(=O)c2ccc(N3CCOCC3)cc2)cc1 [Example 150, 4-methoxy-N-(2-(4-morpholinophenyl)-2-oxoethyl)benzenesulfonamide]	1.14	1.071	–
O=C(CNC(=O)c1ccccc1OC1CCN(S(=O)(=O)c2ccccc2)CC1)c1ccccc1 [Example 187, N-(2-oxo-2-phenylethyl)-2-((1-(phenylsulfonyl)piperidin-4-yl)oxy)benzamide]	1.03	1.235	–
O=C(CNC(=O)c1cccs1)c1ccc(Cl)cc1 [Example 58, N-(2-(4-chlorophenyl)-2-oxoethyl)thiophene-2-carboxamide]	0.91	1.244	–
CCN(CC)Cc1cccc(C(=O)NCC(=O)c2ccccc2)c1 [Example 247, 3-((diethylamino)methyl)-N-(2-oxo-2-phenylethyl)benzamide]	1.27	1.124	–
O=C(CNC(=O)c1cccc(OC(F)(F)F)c1)c1ccc(Cl)cc1 [Example 82, N-(2-(4-chlorophenyl)-2-oxoethyl)-3-(trifluoromethoxy)benzamide]	0.8	1.189	–
CC(C)NC(=O)COc1ccccc1C(=O)NCC(=O)c1ccccc1 [Example 226, 2-(2-(isopropylamino)-2-oxoethoxy)-N-(2-oxo-2-phenylethyl)benzamide]	1.09	1.349	–
O=C(CNC(=O)c1ccc(F)cc1)c1ccccc1 [Example 4, 4-fluoro-N-(2-oxo-2-phenylethyl)benzamide]	–	1.084	1.88
CCCCN(CC)Cc1ccc(C(=O)NCC(=O)c2ccccc2)cc1 [Example 273, 4-((butyl(ethyl)amino)methyl)-N-(2-oxo-2-phenylethyl)benzamide]	1.2	1.171	–
O=C(CNC(=O)c1cccs1)c1ccccc1 [Example 18, N-(2-oxo-2-phenylethyl)thiophene-2-carboxamide]	2.18	1.1	–

SMILES	fold induction at 1 µM (KAI1 promoter; [2])	In vivo relative invation [1]	fold induction at 1 µM (KAI1 promoter)
Cc1cccc(C(=O)NCC(=O)c2ccccc2)c1 [Example 13, 3-methyl-N-(2-oxo-2-phenylethyl)benzamide]	1.73	0.8565	–
O=C(CNC(=O)c1ccccc1OC1CCN(S(=O)(=O)c2ccc(Cl)cc2)CC1)c1ccccc1 [Example 186, 2-((1-((4-chlorophenyl)sulfonyl)piperidin-4-yl)oxy)-N-(2-oxo-2-phenylethyl)benzamide]	1.06	1.145	–
O=C(CNC(=O)c1cccc(CN2CCc3ccccc3C2)c1)c1ccccc1 [Example 232, 3-((3,4-dihydroisoquinolin-2 (1H)-yl)methyl)-N-(2-oxo-2-phenylethyl)benzamide]	1.23	1.125	–
CCN(CCO)Cc1ccc(C(=O)NCC(=O)c2ccccc2)cc1 [Example 274, 4-((ethyl(2-hydroxyethyl)amino)methyl)-N-(2-oxo-2-phenylethyl)benzamide]	5.27	1.219	–
COc1ccc(S(=O)(=O)N2CCC(Oc3ccccc3C(=O)NCC(=O)c3ccccc3)CC2)cc1 [Example 189, 2-((1-((4-methoxyphenyl)sulfonyl)piperidin-4-yl)oxy)-N-(2-oxo-2-phenylethyl)benzamide]	0.9	1.185	–
C/C=C/C(=O)NCC(=O)c1cccnc1 [Example 134, (E)-N-(2-oxo-2-(pyridin-3-yl)ethyl)but-2-enamide]	1.09	1.297	–
O=C(COc1ccccc1C(=O)NCC(=O)c1ccccc1)Nc1ccc2c(c1)OCCO2 [Example 218, 2-(2-((2,3-dihydrobenzo[b] [1, 4]dioxin-6-yl)amino)-2-oxoethoxy)-N-(2-oxo-2-phenylethyl)benzamide]	1.33	1.169	–
Cc1ccccc1C(=O)NCC(=O)c1ccccc1 [Example 11, 2-methyl-N-(2-oxo-2-phenylethyl)benzamide]	1.82	1.036	–
O=C(CNS(=O)(=O)Cc1ccccc1)c1ccccc1 [Example 28, N-(2-oxo-2-phenylethyl)-1-phenylmethanesulfonamide]	1.02	1.057	–
CCCCCN(CCCCC)Cc1cccc(C(=O)NCC(=O)c2ccccc2)c1 [Example 250, 3-((dipentylamino)methyl)-N-(2-oxo-2-phenylethyl)benzamide]	1.25	0.9781	–
O=C(COc1ccccc1C(=O)NCC(=O)c1ccccc1)Nc1ccc2c(c1)OCO2 [Example 217, 2-(2-(benzo [d] [1,3]dioxol-5-ylamino)-2-oxoethoxy)-N-(2-oxo-2-phenylethyl)benzamide]	1.18	1.266	–
O=C(CNC(=O)c1ccco1)c1ccccc1 [Example 5, N-(2-oxo-2-phenylethyl)furan-2-carboxamide]	–	0.812	1.98
O=C(CNC(=O)c1cccc(CN2CCC(N3CCCCC3)CC2)c1)c1ccccc1 [Example 237, 3-([1,4′-bipiperidin]-1′-ylmethyl)-N-(2-oxo-2-phenylethyl)benzamide]	1.56	1.114	–
O=C(CNC(=O)c1ccc(CN2CCC(N3CCCCC3)CC2)cc1)c1ccccc1 [Example 260, 4-([1,4′-bipiperidin]-1′-ylmethyl)-N-(2-oxo-2-phenylethyl)benzamide]	1.33	1.092	–
O=C(CNC(=O)c1ccccc1OC1CCN(C(=O)c2ccc(F)cc2Cl)CC1)c1ccccc1 [Example 194, 2-((1-(2-chloro-4-fluorobenzoyl)piperidin-4-yl)oxy)-N-(2-oxo-2-phenylethyl)benzamide]	1.01	1.259	–
O=C(CNC(=O)C1CCC1)c1ccc(Cl)cc1 [Example 57, N-(2-(4-chlorophenyl)-2-oxoethyl)cyclobutanecarboxamide]	0.94	1.217	–
CCCCC(=O)N1CCC(Oc2ccccc2C(=O)NCC(=O)c2ccccc2)CC1 [Example 172, N-(2-oxo-2-phenylethyl)-2-((1-pentanoylpiperidin-4-yl)oxy)benzamide]	0.93	1.16	–
O=C(CNS(=O)(=O)c1ccc(Cl)cc1)c1ccc(Cl)cc1 [Example 69, 4-chloro-N-(2-(4-chlorophenyl)-2-oxoethyl)benzenesulfonamide]	0.84	1.095	–
O=C(CNC(=O)c1ccccc1OC1CCN(C(=O)C2CCCCC2)CC1)c1ccccc1 [Example 165, 2-((1-(cyclohexanecarbonyl)piperidin-4-yl)oxy)-N-(2-oxo-2-phenylethyl)benzamide]	1.07	1.133	–
O=C(CNC(=O)c1ccccc1OCC(=O)N1CCc2ccccc2C1)c1ccccc1 [Example 227, 2-(2-(3,4-dihydroisoquinolin-2 (1H)-yl)-2-oxoethoxy)-N-(2-oxo-2-phenylethyl)benzamide]	1.01	1.153	–
